From PMC5148673 (European journal of medicinal chemistry, 2016)

What was measured:
Format in all cases: cell-based, human
BT-474 cells = assay: Flow cytometry cell cycle analysis
MCF-7 cells = assay: Confocal microscopy intracellular distribution, MCF-7; conditions: MCF-7, 30 min, 4 h, 24 h incubation
SKBR-3 cells = assay: Confocal microscopy intracellular distribution, SKBR-3; conditions: SKBR-3, 5 μM, 30 min, 37 °C

Structure (SMILES) | effect on cell cycle inhibition (BT-474 cells) | DOX fluorescence in cells (MCF-7 cells) | DOX fluorescence distribution in cells (SKBR-3 cells)
N=C(N)NCCC[C@H](N)C(=O)N[C@@H](CC(=O)N[C@@H](Cc1ccccc1)C(=O)O)c1cccc2ccccc12 [Compound 5, Arg-aminonaphthylpropionic acid-Phe] | no significant effect on cell cycle inhibition |  | 
COc1cccc2c1C(=O)c1c(O)c3c(c(O)c1C2=O)C[C@@](O)(C(=O)CO)C[C@@H]3O[C@H]1C[C@H](N)[C@H](O)[C@H](C)O1 [DOX, Doxorubicin] |  | fluorescence was seen in 30 min | strong DOX fluorescence in both the nucleus and cytoplasm
